Results from US9283234B2, “Compositions and methods for suppressing endometrial proliferation” (REPROS THERAPEUTICS INC., priority 2006, dated 2016).

How the values were obtained:
[1] = target: T1, glucocorticoid receptor (rbGR) (Oryctolagus cuniculus, UniProt P59667); test: glucocorticoid receptor binding; design: species or system rabbit
T1 construct: cytosol containing PR or GR were prepared in TEGMD buffer; from tissue; host or cells: thymus of estradiol-primed immature rabbits (cytosol)
T1 sequence (P59667 1-772): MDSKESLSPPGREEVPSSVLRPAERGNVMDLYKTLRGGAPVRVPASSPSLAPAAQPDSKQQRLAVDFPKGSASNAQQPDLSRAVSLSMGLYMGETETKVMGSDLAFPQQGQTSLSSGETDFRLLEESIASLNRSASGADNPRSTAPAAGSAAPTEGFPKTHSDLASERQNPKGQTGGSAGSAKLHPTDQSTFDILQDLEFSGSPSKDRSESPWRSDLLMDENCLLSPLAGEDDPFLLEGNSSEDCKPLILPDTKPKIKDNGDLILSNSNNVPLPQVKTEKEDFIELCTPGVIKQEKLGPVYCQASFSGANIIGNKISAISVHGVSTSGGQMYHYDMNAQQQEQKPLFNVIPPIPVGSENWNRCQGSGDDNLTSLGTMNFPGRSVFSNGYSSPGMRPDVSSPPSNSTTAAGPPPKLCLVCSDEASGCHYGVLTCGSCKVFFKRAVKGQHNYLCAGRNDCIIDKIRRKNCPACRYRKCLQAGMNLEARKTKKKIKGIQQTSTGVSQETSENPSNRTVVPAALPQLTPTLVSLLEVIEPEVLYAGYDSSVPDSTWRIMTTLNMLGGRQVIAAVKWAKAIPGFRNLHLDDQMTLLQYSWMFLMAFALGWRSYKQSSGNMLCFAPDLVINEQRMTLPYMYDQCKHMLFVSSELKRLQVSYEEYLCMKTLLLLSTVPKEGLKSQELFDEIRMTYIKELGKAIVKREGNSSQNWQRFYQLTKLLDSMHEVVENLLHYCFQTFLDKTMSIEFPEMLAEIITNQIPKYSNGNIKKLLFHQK
Protocol: Certain antiprogestins were tested in receptor-binding assays for their ability to bind rabbit progesterone receptor (rbPR) and glucocorticoid receptor (rbGR). […] For PR binding, the cytosol was incubated with 6 nM 1,2-[^3H]progesterone (50.0 Ci/mmole) and competitors were added at concentrations from 2 to 100 nM. For binding to GR, the cytosol was incubated with 6 nM 6,7-[^3H]-dexamethasone (40 Ci/mmol) and test compounds were added at concentrations from 20 to 100 nM. After overnight incubation at 4 C, bound and unbound [^3H] steroids were separated by addition of dextran-coated charcoal and centrifugation at 2100×g for 15 min at 4 C. Supernatants containing the [^3H]-steroid receptor complexes were decanted into vials containing 4 ml OPTIFLUOR scintillation fluid (Packard Instrument Co.), vortexed, equilibrated in a liquid scintillation counter for 30 minutes and then counted for 2 minutes. […] The standards for the PR and GR assays were unlabeled progesterone and dexamethasone, respectively.

[2] = estrogenic, androgenic, anti-estrogenic and anti-androgenic activities
Excerpt: These methods include receptor binding and in vivo bioassays such as anti-McGinty, anti-Clauberg, glucocorticoid, estrogenic, androgenic, anti-glucocorticoid (AG), anti-estrogen, and anti-androgen activities as well as post-coital and anti-ovulatory activities where in the leading compounds of the instant invention are used as a reference.

[3] = Measuring serum cortisol in rats; assay type: in vivo; settings: 10 mg/kg, 21 days of chronic dosing, FIG. 1
[4] = system: rabbit progesterone receptor (rbPR) and glucocorticoid receptor (rbGR); test: Receptor-binding assays, ratio of relative binding affinities rbPR/rbGR; settings: ratio of relative binding affinities (RBA = EC50 of standard/EC50 of test compound x100) for rbPR and rbGR; standards progesterone, dexamethasone
Protocol: Certain antiprogestins were tested in receptor-binding assays for their ability to bind rabbit progesterone receptor (rbPR) and glucocorticoid receptor (rbGR). Briefly, cytosol containing PR or GR were prepared in TEGMD buffer (10 mM Tris, pH 7.2, 1.5 mM EDTA, 0.2 mM sodium molybdate, 10% glycerol, 1 mM DTT) from uterus or thymus, respectively, of estradiol-primed immature rabbits. For PR binding, the cytosol was incubated with 6 nM 1,2-[^3H]progesterone (50.0 Ci/mmole) and competitors were added at concentrations from 2 to 100 nM. For binding to GR, the cytosol was incubated with 6 nM 6,7-[^3H]-dexamethasone (40 Ci/mmol) and test compounds were added at concentrations from 20 to 100 nM. After overnight incubation at 4 C, bound and unbound [^3H] steroids were separated by addition of dextran-coated charcoal and centrifugation at 2100×g for 15 min at 4 C. Supernatants containing the [^3H]-steroid receptor complexes were decanted into vials containing 4 ml OPTIFLUOR scintillation fluid (Packard Instrument Co.), vortexed, equilibrated in a liquid scintillation counter for 30 minutes and then counted for 2 minutes. The EC50 (Effective Concentration) for each standard curve and each of the compound curves was determined by entering the counting data into a four parameter sigmoidal computer program ([…] Immunoassay Data Reduction Program, Packard Instrument Co., Meriden, Conn.). Relative binding affinity (RBA) for each compound was calculated using the following equation: EC50 of standard/EC50 of test compound×100. The standards for the PR and GR assays were unlabeled progesterone and dexamethasone, respectively. The results of these experiments are summarized in Table 1, as a ratio of the relative binding affinities of each compound for the rbPR and rbGR receptors (rbPR/rbGR).

rabbit uterus = test: anti-McGinty and anti-Clauberg assays; assay type: in vivo; settings: average of anti-McGinty and anti-Clauberg results relative to CDB-2914 (=1.00)
Excerpt: Also given in Table 1 are the relative biological activities of the same compounds in the rabbit uterus by the anti-McGinty and anti-Clauberg assays. Compound CDB-2914 (listed at the end of the Table) was used as the control or reference compound (rabbit Biological Activity=1.00) for these experiments because results of experiments using CDB-2914 have been published before (Hild-Petito et al., 1996; Passaro et al., 1997; Reel et al., 1998; Larner et al., 2000). For the anti-McGinty test, immature female rabbits received a subcutaneous injection of 5 μg estradiol in 10% ethanol/sesame oil daily for 6 consecutive days. On day 7, animals underwent sterile abdominal surgery to ligate a 3-4 cm segment of both uterine horns. The test compound in appropriate solvent was injected intraluminally into the ligated segment of one uterine horn and vehicle alone into the other. A stimulating dose of progesterone (267 μg/day) was administered subcutaneously to each rabbit daily for the next three days to induce endometrial proliferation. All animals were sacrificed at day 10 for removal of the uterus where a segment central to the ligatures was removed and fixed in 10% neutral buffered formalin and submitted for histological processing. Five micron sections stained with hematoxylin and cosin were evaluated microscopically for the degree of endometrial glandular proliferation. The percent inhibition of endometrial proliferation for each rabbit was calculated and the mean of the group of five animals recorded. For the Anti-Clauberg test, immature female rabbits received a subcutaneous injection of 5 μg estradiol in 10% ethanol/sesame oil daily for 6 consecutive days. On day 7, animals received progesterone by subcutaneous injection (160 μg/day) and the experimental compound in appropriate vehicle orally or subcutaneously for five consecutive days. One group of rabbits received progesterone only. […] Five micron sections stained with hematoxylin and eosin were evaluated microscopically for the degree of endometrial glandular proliferation. […]

[5] = system: pain associated with endometriosis; test: Six month endometriosis study: pain diaries and symptom surveys; assay type: in vivo, pre-menopausal adult women; design: key to score for intensity of pain on a bad day: 0-10 scale; 0 = no pain, 10 = extreme pain
Protocol: Pain reduction also occurred more rapidly than with the active control, LUCRIN. The response of pain to treatment in this study was analyzed in two ways. Patients in the study maintained daily pain diaries to record the severity and frequency of pain. In addition, at each office visit, patients filled out endometriosis symptom surveys that included a questionnaire that evaluated intensity of pain on a bad day on a scale of 0-10 with 10 being the greatest intensity. […] There appeared to be a dose dependent effect on pain reduction. […] This decrease in duration of pain was statistically better (p=0.0012) than the 117.8 (74%; standard deviation 51.4 days) pain free days achieved with LUCRIN. […] Patients on CDB-4124 12.5 mg and 25 mg doses had 115.9 (66%; standard deviation 69.2 days) and 133.6 (75%; standard deviation 27.4 days) pain free days, respectively. […] The 25 mg and 12.5 mg doses of CDB-4124 were not statistically different from LUCRIN. […] The intensity of pain was asked by the question: “On a scale of 1-10, with 0 being no pain and 10 being extreme pain, how intense was your pain on a bad day?” The mean scores for intensity of pain at baseline were 6.3 for the CDB-4124 groups and 6.1 for the LUCRIN group. […] At month three all four active treatment groups had statistically significant reduction in pain compared with baseline, with the following scores: 3.7 (p=0.03) for 12.5 mg CDB-4124, 3.2 (p=0.03) for 25 mg CDB-4124, 1.6 (p=0.015) for 50 mg CDB-4124 and 1.5 (p=0.016) for LUCRIN. These dose related reductions continued until month six when the values for pain intensity were 2.0 (p=0.008), 2.8 (p=0.023), 0.6 (p=0.004) and 0.7 (p=0.016), respectively. Two months after stopping treatment pain returned and was of similar intensity in all four treatment groups.

endometrium = test: Six month endometriosis study: endometrial thickness (ultrasound) / endometrial proliferation; assay type: in vivo, pre-menopausal adult women; settings: LUPRON once per month
Excerpt: Comparisons were made to both baseline and visit one ultrasound measurements of endometrial thickness. […]

[6] = Measuring serum corticosterone in rats; settings: progesterone, CDB-4124 and RU-486 groups compared

Q: With `CC(=O)O[C@]1(C(C)=O)CC[C@H]2[C@@H]3CCC4=CC(=O)CCC4=C3[C@@H](c3ccc(N(C)C)cc3)C[C@@]21C` [CDB-2914, 17α-acetoxy-11β-(4-N,N-dimethylaminophenyl)-19-norpregna-4,9-dien-3,20-dione] as the compound, how does the “anti-glucocorticoid receptor activity / glucocorticoid receptor binding” value [1] read?
A: moderately active in glucocorticoid receptor binding

Q: For `CC(=O)OCC(=O)[C@@]1(OC(C)=O)CCC2C3CCC4=CC(=O)CCC4=C3C(c3ccc(N(C)C)cc3)C[C@@]21C` (stereo partly drawn) [CDB-4059, 21-acetoxy-17α-acetoxy-1,3-(4 N,N-dimethylaminophenyl)-19-norpregna-4,9-diene-3,20-dione], which “estrogenic, androgenic, anti-estrogenic, and anti-androgenic activities” value [2] is on record?
A: lack

Q: What about the “serum cortisol versus control group” value [3] of the same compound?
A: significantly higher levels of serum cortisol

Q: Which results are given for `COCC(=O)[C@@]1(OC(C)=O)CCC2C3CCC4=CC(=NO)CCC4=C3C(c3ccc(N(C)C)cc3)C[C@@]21C` (stereo partly drawn) [CDB-4205, 3-hydroxyamino-2′-methoxy-17α-acetoxy-11β-(4 N,N-dimethylaminophenyl)-19-norpregna-4,9-diene-3,20-dione]?
A: rbPR/rbGR [4]: 1.99; rabbit Biol. Act. (rabbit uterus): 1.00

Q: With `CC(=O)OCC(=O)[C@@]1(OC(C)=O)CCC2C3CCC4=CC(=NO)CCC4=C3C(c3ccc(N(C)C)cc3)C[C@@]21C` (stereo partly drawn) [CDB-4206, 3-hydroxyamino-2′-acetoxy-17α-acetoxy-11β-(4 N,N-dimethylaminophenyl)-19-norpregna-4,9-diene-3,20-dione] as the compound, how does the rbPR/rbGR [4] read?
A: 1.44

Q: What about the “rabbit Biol. Act.” value (rabbit uterus) of the same compound?
A: 0.68

Q: For `CCOCC(=O)[C@@]1(OC(C)=O)CCC2C3CCC4=CC(=NO)CCC4=C3C(c3ccc(N(C)C)cc3)C[C@@]21C` (stereo partly drawn) [CDB-4226, 3-hydroxyamino-21-ethyloxy-17α-acetoxy-11β-(4 N,N-dimethylaminophenyl)-19-norpregna-4,9-diene-3,20-dione], which rbPR/rbGR [4] is on record?
A: 1.51

Q: And the “rabbit Biol. Act.” value (rabbit uterus)?
A: 0.54

Q: Which results are given for `CCNC(=O)[C@@H]1CCCN1C(=O)[C@H](CCCNC(=N)N)NC(=O)[C@H](CC(C)C)NC(=O)[C@@H](CC(C)C)NC(=O)[C@H](Cc1ccc(O)cc1)NC(=O)[C@H](CO)NC(=O)[C@H](Cc1c[nH]c2ccccc12)NC(=O)[C@H](Cc1c[nH]cn1)NC(=O)[C@@H]1CCC(=O)N1` [LUPRON, leuprolide acetate, reference compound]?
A: percent pain free days over the 180 day treatment period ([5]; LUCRIN once per month): 74%; distress related to pain over the six month exposure ([5]; all doses, on average): reduced distress related to pain; mean score for intensity of pain on a bad day ([5]; baseline, scale 0-10): 6.1; score for intensity of pain on a bad day ([5]; month six, LUCRIN once per month): 0.7; score for intensity of pain on a bad day ([5]; month three, LUCRIN once per month): 1.5; Endometrium (mm) 1st dose (endometrium; 1st dose): 7.5 mm; Endometrium (mm) 3 months (endometrium; 3 months): 2.75 mm; Endometrium (mm) screening (endometrium; screening): 7.9 mm

Q: Which results are given for `CC#C[C@]1(O)CC[C@H]2[C@@H]3CCC4=CC(=O)CCC4=C3[C@@H](c3ccc(N(C)C)cc3)C[C@@]21C` [RU 486, 11β-[p-(Dimethylamino)phenyl]-17β-hydroxy-17-(1-propynyl)estra-4,9-dien-3-one, reference compound]?
A: anti-glucocorticoid receptor activity / glucocorticoid receptor binding [1]: moderately active in glucocorticoid receptor binding; serum cortisol versus control group [3]: no significant difference in the levels of cortisol; differences in serum corticosterone between treatment groups [6]: No differences in serum corticosterone

Q: For `CC(=O)[C@H]1CC[C@H]2[C@@H]3CCC4=CC(=O)CC[C@]4(C)[C@H]3CC[C@]12C` [progesterone, reference compound], which “differences in serum corticosterone between treatment groups” value [6] is on record?
A: No differences in serum corticosterone
